Assay results taken from the NIST ThermoML archive (doi:10.1021/je900193m).

Assay: xn = mol fraction of the nth substance listed
Conditions: 101 kPa, Liquid, holographic inferometry, x1 = 0

CCOC(=O)OCC [diethyl carbonate] + CCCCCCC
Conditions	binary diffusion coefficient [m2/s]
278.15 K	3.93e-09
281.15 K	3.96e-09
284.15 K	3.99e-09
287.15 K	4.02e-09
290.15 K	4.08e-09
293.15 K	4.14e-09
296.15 K	4.19e-09
299.15 K	4.27e-09
302.15 K	4.32e-09
305.15 K	4.4e-09
308.15 K	4.47e-09
311.15 K	4.54e-09
314.15 K	4.62e-09
317.15 K	4.7e-09
320.15 K	4.8e-09
323.15 K	4.88e-09
326.15 K	4.97e-09
329.15 K	5.07e-09
332.15 K	5.15e-09
335.15 K	5.25e-09
338.15 K	5.35e-09

COC(=O)OC [dimethyl carbonate] + CCCCCCC
Conditions	binary diffusion coefficient [m2/s]
278.15 K	4.93e-09
281.15 K	4.97e-09
284.15 K	5.01e-09
287.15 K	5.07e-09
290.15 K	5.13e-09
293.15 K	5.19e-09
296.15 K	5.25e-09
299.15 K	5.33e-09
302.15 K	5.39e-09
305.15 K	5.48e-09
308.15 K	5.55e-09
311.15 K	5.63e-09
314.15 K	5.71e-09
317.15 K	5.8e-09
320.15 K	5.9e-09
323.15 K	5.99e-09
326.15 K	6.09e-09
329.15 K	6.2e-09
332.15 K	6.29e-09
335.15 K	6.41e-09
338.15 K	6.52e-09

CCOC(=O)CCCCC(=O)OCC [diethyl hexanedioate] + CCCCCCC
Conditions	binary diffusion coefficient [m2/s]
278.15 K	1.93e-09
281.15 K	1.96e-09
284.15 K	1.99e-09
287.15 K	2.02e-09
290.15 K	2.06e-09
293.15 K	2.1e-09
296.15 K	2.15e-09
299.15 K	2.2e-09
302.15 K	2.25e-09
305.15 K	2.31e-09
308.15 K	2.37e-09
311.15 K	2.43e-09
314.15 K	2.49e-09
317.15 K	2.56e-09
320.15 K	2.62e-09
323.15 K	2.7e-09
326.15 K	2.78e-09
329.15 K	2.85e-09
332.15 K	2.92e-09
335.15 K	3.02e-09
338.15 K	3.11e-09
